Assay results taken from patent US20240257668A1, “3D ARTIFICIAL SKIN MODEL AND METHOD FOR PRODUCING THE SAME” (Korea Advanced Institute of Science and Technology, priority 2023, published 2024).

How the values were obtained:
[1] = system: stromal layer of the basement membrane+stromal layer artificial skin model; test: Inhibition of tissue contraction of basement membrane+stromal layer artificial skin model by blebbistatin; type: cell-based
Method: Additionally, the basement membrane+stromal layer model without epithelial cells (Example 1-4) was produced and incubated for 24 hours under conditions of 37° C. and 5% CO2.
After incubation, each sample was imaged with a confocal fluorescence microscope at a wavelength of 488 nm, and the images were synthesized into two-dimensional images by max intensity projection using the ImageJ imaging program. […] However, it could be seen that, in the sample in which tissue contraction had already occurred, tissue contraction was maintained even after subsequent treatment with blebbistatin.

[2] = system: stromal cells (fibroblasts) in the stromal layer; test: Tissue contraction of basement membrane+stromal layer artificial skin model incubated with TGF-β2; type: cell-based; settings: 10 ng/ml TGF-β2 added to DMEM + 10% FBS + 1% P/S; 96 hours, 37° C., 5% CO2; model without epithelial cells (FIGS. 5 and 6)
Method: In order to form wavy ridges in the stromal layer corresponding to the dermal layer of normal skin tissue, tissue contraction is required at the stromal layer boundary that is in contact with the basement membrane. In order to confirm whether the artificial skin model of the present disclosure can mimic this function, a basement membrane+stromal layer model without epithelial cells (Example 1-4) was produced, incubated under conditions of 37° C. and 5% CO2 for 96 hours. Incubation was performed using DMEM containing 10% FBS (fetal bovine serum) and 1% P/S (penicillin/streptomycin), and 10 ng/ml of TGF-β2 (transforming growth factor-beta 2) was additionally added to the test group. FIGS. 5 and 6, respectively, show the results of imaging the incubated model and the results of quantifying the image size relative to the control strain (0) based on 6 mm. The physical property was measured with Anton Paar MCR 92. […] This is believed to be because TGF-β2 increased contraction by activating stromal cells (fibroblasts) in the stromal layer. Therefore, in the following study, a medium supplemented with 10 ng/ml of TGF-β2 was used.

Cc1ccc2c(c1)C(=O)C1(O)CCN(c3ccccc3)C1=N2 (stereo not drawn) [blebbistatin]
tissue contraction at the stromal layer boundary ([1]; 10 μM blebbistatin in control medium (with 10 ng/ml TGF-β2) from the beginning, 24 hours (group Bleb; FIG. 7)): inhibited
tissue contraction at the stromal layer boundary ([1]; 12 hours control medium, then 12 hours with 10 μM blebbistatin, tissue contraction already occurred (group Bleb after 12 hours; FIG. 7)): maintained

B1: transforming growth factor-beta 2 (protein, UniProt P61812 303-414, looked up)
Transforming growth factor …: ALDAAYCFRNVQDNCCLRPLYIDFKRDLGWKWIHEPKGYNANFCAGACPYLWSSDTQHSRVLSLYNTINPEASASPCCVSQDLEPLTILYYIGKTPKIEQLSNMIVKSCKCS
tissue contraction at the boundary of the stromal layer [2]: well induced
